Key:
[1] = tested on: ABCF1 promoter (eGFP reporter); assay: DC2.4 cells transfected with ABCF1-GFP reporter construct, drug screening by fluorescence; type: cell-based; conditions: for induction of ABCF1-EGFP-IRES (FIG. 11): DC2.4 cells with ABCF1 GFP construct
Excerpt: Cells for use in a high-throughput cell-based screening assay to screen for drugs and genes that stimulate ABCF1 expression were created. In particular, the cells comprise a construct comprising the ABCF1 promoter linked to the sequence encoding eGFP. In the assay, drugs/compositions may be screened for modulating expression of ABCF1 by measuring fluorescence. • 1. DC2.4 cell line was used for the ABCF1-GFP vector (FIG. 7) transfection. DC 2.4 cell line was used as these cells have low endogenous ABCF1 expression. • 2. After 3 days, based on the fluorescent signal, those transfected cells were single cell sorted using cell sorter, compared with DC2.4 cell line without transfection as a negative control. (Those cells with some fluorescent signals were transfected successfully as expected) • 3. Those single cells were collected in a 96 well plate and grown around 2 weeks using DMEM+10% FBS+1% PS, and 12 colonies were picked. • 4. Expended 12 colonies into 24 well plate to grow continuously around 2 weeks with DMEM+10% FBS+1% PS+[…] Hygromycin (selection antibiotics which inserted in the vector) to keep the majority of cells which containing the vector. • 5. 5 colonies were growing well and checked the colonies ABCF1 expression level (checked the GFP reporter in between negative control and positive control (50 uM and 100 μM) to see which colonies is the best to be drug screening cell). • See FIGS. 8 to 11.

[2] = tested on: ABCF1; assay: real time RT-PCR specific for ABCF1 and IL-4 in RAW macrophages incubated with Escitalopram; type: cell-based, murine; conditions: 0.3 mM, 1 hour
Protocol: RAW macrophages were plated at 1×10^5 cells/well and cultured for 2 days. The cells were incubated with 0.3 mM Escitalopram for 1 hour, and then harvested for total RNA, which was extracted for real time RT-PCR specific for ABCF1 and IL-4. CT values were normalized with CT value for the housekeeping gene from the DMSO control.

[3] = tested on: ABCF1; assay: qPCR of ABCF1 transcription in macrophage cell line RAW264.7, dose response with psychedelics; type: cell-based, murine; conditions: RAW264.7, 10 nM, 100 nM, 500 nM, 2 hours post treatment
Protocol: • 1. Macrophage cell line RAW264.7 (ATCC) were grown to 80% confluency in growth media (DMEM+10% FBS+glutamine). • 2. Dilutions of the drugs were made at desired final concentrations for a Dose response experiment. The concentrations' used for this experiment are: 10 nM, 100 nM, 500 nM for Psilocin, Psylocibin, 4-Acetoxy-N, N-dimthyltryptamine, O-Acetyl Psilocin Fumerate, and 4-acetoxyindole. • 3. Untreated cells were used as negative control and Escitalopram at 0.3 mM was used as a positive control to activate ABCF1 expression for all the experiments. Analysis by qPCR:
• 1. 2 hours post treatment with drugs, the reaction was stopped by removing the media with the drug. Cells were then collected and RNA was isolated from these. • 2. After checking the quality of the RNA, cDNA was generated and qPCR was run with ABCF1 primers as the target gene and GAPDH as the house keeping gene. • 3. Normalized against the expression level of GAPDH, the fold change expression level of ABCF1 was calculated and tabulated for all treatment conditions.

Compound	induction of ABCF1-EGFP-IRES (FIG. 11) [1]	ABCF1 upregulation (FIG. 10) ([1]; after 1 hour drug treatment)	difference in ABCF1 and IL-4 expression after drug treatment (macrophage polarization) ([2]; consistent in 3 separate experiments)	ABCF1 induction in a macrophage cell line ([2]; real time RT-PCR)	ABCF1 transcription (fold change vs GAPDH) [3]
CC(=O)Oc1cccc2[nH]ccc12 [AOI, 4-acetoxyindole]	induction	upregulates			
CN(C)CCC[C@@]1(c2ccc(F)cc2)OCc2cc(C#N)ccc21 [Escitalopram]	induction		consistent with polarization towards an M2-like phenotype	Induces	
CN(C)CCc1c[nH]c2cccc(O)c12 [psylocin, Psilocin]					upregulate

Source: US20250327140A1, “A METHOD OF DETERMINING THE DOSE OF PSYCHEDELICS” (priority 2022, published 2025)
